tested on: recombinant NL4-3 virus (nef section replaced with Renilla luciferase gene, Gag P373S); assay: HIV Cell Culture Assay (luciferase reporter virus in MT-2 cells); type: cell-based; details: NL43
Description: MT-2 cells and 293T cells were obtained from the NIH AIDS Research and Reference Reagent Program. MT-2 cells were propagated in RPMI 1640 media supplemented with 10% heat inactivated fetal bovine serum, […]. The 293T cells were propagated in DMEM media supplemented with 10% heat inactivated fetal bovine serum (FBS), 100 units/mL penicillin G and 100 μg/mL streptomycin. The proviral DNA clone of NL4-3 was obtained from the NIH AIDS Research and Reference Reagent Program. A recombinant NL4-3 virus, in which a section of the nef gene from NL4-3 was replaced with the Renilla luciferase gene, was used as a reference virus. In addition, residue Gag P373 was converted to P373S. Briefly, the recombinant virus was prepared by transfection of the altered proviral clone of NL4-3. Transfections were performed in 293T cells using LipofectAMINE PLUS from Invitrogen (Carlsbad, Calif.), according to manufacturer's instruction. The virus was titered in MT-2 cells using luciferase enzyme activity as a marker. Luciferase was quantitated using the Dual Luciferase kit from Promega (Madison, Wis.), with modifications to the manufacturer's protocol. The diluted Passive Lysis solution was pre-mixed with the re-suspended Luciferase Assay Reagent and the re-suspended Stop & Glo Substrate (2:1:1 ratio). Fifty (50) μL of the mixture was added to each aspirated well on assay plates and luciferase activity was measured immediately on a Wallac TriLux (Perkin-Elmer). Antiviral activities of inhibitors toward the recombinant virus were quantified by measuring luciferase activity in cells infected for 4-5 days with NLRluc recombinants in the presence serial dilutions of the inhibitor.

Compound	EC50
C=C(C)[C@@H]1CC[C@]2(C(=O)O)C[C@@H]3OC(C)(C)O[C@H]4C[C@H]5C(C)(C)C(c6ccc(C(=O)O)cc6)=CC[C@]5(C)[C@H]5CC[C@H]([C@@H]12)[C@]3(C)[C@]45C [Example 1, (1R,3aS,4aS,4a1R,7aS,7a1R,8aR,12aS,12bR,14aR,14bR)-10-(4-carboxyphenyl)-4a1,6,6,7a1,9,9,12a-heptamethyl-1-(prop-1-en-2-yl)-2,3,3a,4,4a,4a1,7a,7a1,8,8a,9,12,12a,12b,13,14,14a,14b-octadecahydro-1H-cyclopenta[1,2]chryseno[4,5-def][1,3]dioxepine-3a-carboxylic acid]	40 nM
C=C(C)[C@@H]1CC[C@]2(C(=O)O)C[C@H](O)[C@]3(C)[C@H](CC[C@@H]4[C@@]5(C)CC=C(c6ccc(C(=O)O)cc6)C(C)(C)[C@@H]5C[C@H](O)[C@]43C)[C@@H]12 [Example 2, (1R,3aS,5S,5aR,5bR,6S,7aR,11aS,11bR,13aR,13bR)-9-(4-carboxyphenyl)-5,6-dihydroxy-5a,5b,8,8,11a-pentamethyl-1-(prop-1-en-2-yl)-2,3,3a,4,5,5a,5b,6,7,7a,8,11,11a,11b,12,13,13a,13b-octadecahydro-1H-cyclopenta[a]chrysene-3a-carboxylic acid]	1560 nM
C=C(C)[C@@H]1CC[C@]2(NCCN3CCS(=O)(=O)CC3)C[C@H](O)[C@]3(C)[C@H](CC[C@@H]4[C@@]5(C)CC=C(c6ccc(C(=O)O)cc6)C(C)(C)[C@@H]5C[C@H](O)[C@]43C)[C@@H]12 [Example 3, 4-((1R,3aS,5S,5aR,5bR,6S,7aR,11aS,11bR,13aR,13bR)-3a-((2-(1,1-dioxidothiomorpholino)ethyl)amino)-5,6-dihydroxy-5a,5b,8,8,11a-pentamethyl-1-(prop-1-en-2-yl)-2,3,3a,4,5,5a,5b,6,7,7a,8,11,11a,11b,12,13,13a,13b-octadecahydro-1H-cyclopenta[a]chrysen-9-yl)benzoic acid]	17 nM
CC(C)[C@@H]1CC[C@]2(C(=O)O)CC[C@]3(C)[C@H](CC[C@@H]4[C@@]5(C)C(=O)C=C(c6ccc(C(=O)O)cc6)C(C)(C)[C@@H]5CC[C@]43C)[C@@H]12 [Example 4, (1S,3aS,5aR,5bR,7aS,11aS,11bS,13aR,13bR)-9-(4-carboxyphenyl)-1-isopropyl-5a,5b,8,8,11a-pentamethyl-11-oxo-2,3,3a,4,5,5a,5b,6,7,7a,8,11,11a,11b,12,13,13a,13b-octadecahydro-1H-cyclopenta[a]chrysene-3a-carboxylic acid]	29 nM
CC(C)[C@@H]1CC[C@]2(C(=O)O)CC[C@]3(C)[C@H](CC[C@@H]4[C@@]5(C)[C@@H](O)C=C(c6ccc(C(=O)O)cc6)C(C)(C)[C@@H]5CC[C@]43C)[C@@H]12 [Example 5, (1S,3aS,5aR,5bR,7aS,11S,11aS,11bS,13aR,13bR)-9-(4-carboxyphenyl)-11-hydroxy-1-isopropyl-5a,5b,8,8,11a-pentamethyl-2,3,3a,4,5,5a,5b,6,7,7a,8,11,11a,11b,12,13,13a,13b-octadecahydro-1H-cyclopenta[a]chrysene-3a-carboxylic acid]	410 nM
CC(C)[C@@H]1CC[C@]2(C(=O)O)CC[C@]3(C)[C@H](CC[C@@H]4[C@@]5(C)[C@H](O)C=C(c6ccc(C(=O)O)cc6)C(C)(C)[C@@H]5CC[C@]43C)[C@@H]12 [Example 6, (1S,3aS,5aR,5bR,7aS,11R,11aS,11bS,13aR,13bR)-9-(4-carboxyphenyl)-11-hydroxy-1-isopropyl-5a,5b,8,8,11a-pentamethyl-2,3,3a,4,5,5a,5b,6,7,7a,8,11,11a,11b,12,13,13a,13b-octadecahydro-1H-cyclopenta[a]chrysene-3a-carboxylic acid]	1730 nM
CC(C)[C@@H]1CC[C@]2(C(=O)NCCCN3CCS(=O)(=O)CC3)CC[C@]3(C)[C@H](CC[C@@H]4[C@@]5(C)[C@H](F)C=C(c6ccc(C(=O)O)cc6)C(C)(C)[C@@H]5CC[C@]43C)[C@@H]12 [Example 8, 4-((1S,3aS,5aR,5bR,7aS,11R,11aS,11bS,13aR,13bR)-3a-((3-(1,1-dioxidothiomorpholino)propyl)carbamoyl)-11-fluoro-1-isopropyl-5a,5b,8,8,11a-pentamethyl-2,3,3a,4,5,5a,5b,6,7,7a,8,11,11a,11b,12,13,13a,13b-octadecahydro-1H-cyclopenta[a]chrysen-9-yl)benzoic acid]	3.31 nM
CC(C)[C@@H]1CC[C@]2(N)CC[C@]3(C)[C@H](CC[C@@H]4[C@@]5(C)C(=O)C=C(c6ccc(C(=O)O)cc6)C(C)(C)[C@@H]5CC[C@]43C)[C@@H]12 [Example 9, 4-((1S,3aS,5aR,5bR,7aS,11aS,11bS,13aR,13bR)-3a-amino-1-isopropyl-5a,5b,8,8,11a-pentamethyl-11-oxo-2,3,3a,4,5,5a,5b,6,7,7a,8,11,11a,11b,12,13,13a,13b-octadecahydro-1H-cyclopenta[a]chrysen-9-yl)benzoic acid]	1.2 nM
CC(C)[C@@H]1CC[C@]2(NCCN3CCS(=O)(=O)CC3)CC[C@]3(C)[C@H](CC[C@@H]4[C@@]5(C)C(=O)C=C(c6ccc(C(=O)O)cc6)C(C)(C)[C@@H]5CC[C@]43C)[C@@H]12 [Example 10, 4-((1S,3aS,5aR,5bR,7aS,11aS,11bS,13aR,13bR)-3a-((2-(1,1-dioxidothiomorpholino)ethyl)amino)-1-isopropyl-5a,5b,8,8,11a-pentamethyl-11-oxo-2,3,3a,4,5,5a,5b,6,7,7a,8,11,11a,11b,12,13,13a,13b-octadecahydro-1H-cyclopenta[a]chrysen-9-yl)benzoic acid]	1.2 nM
CC(C)[C@@H]1CC[C@]2(C(=O)O)CC[C@]3(C)[C@H](CC[C@@H]4[C@@]5(C)C[C@@H]6O[C@]6(c6ccc(C(=O)O)cc6)C(C)(C)[C@@H]5CC[C@]43C)[C@@H]12 [Example 11, (1S,3aS,5aR,5bR,7aR,8aS,9aS,10aR,10bR,12aR,12bR)-8a-(4-carboxyphenyl)-1-isopropyl-5a,5b,8,8,10a-pentamethylicosahydro-1H-cyclopenta[7,8]chryseno[2,3-b]oxirene-3a-carboxylic acid]	1310 nM
